From article PMC8362182, “Acetylenic Replacement of Albicidin's Methacrylamide Residue Circumvents Detrimental E/Z Photoisomerization and Preserves Antibacterial Activity” (Chemistry (Weinheim an Der Bergstrasse, Germany), 2021)
Converted amounts (≈) assume the structure as drawn. Where two headings read alike, the source gives them in different places.

Assays:
B. subtilis DSM10 [1] = test system: T1, B. subtilis DSM10; experiment: microbe, parasite or virus in culture; parameters: broth microdilution MIC in Mueller-Hinton Broth II, CLSI M07-A9; details: Bacillus subtilis
T1 construct: DSM10
Description: (§1) 2 Procedures for Biological Assays. Microdilution Assay. Minimal inhibitory concentration (MIC) values were determined according to the ninth edition of the Approved Standard M07-A9. The test was carried out for six different bacterial strains (E.coli DSM1116 [Gram-negative], E. coli BW25113 [Gram-negative], B. subtilis DSM10 [Gram-postive], M. luteus DSM1790 [Gram-postive], M. phlei DSM750 [Gram-postive], S. typhimurium TA100 [Gram-negative]. 20 µL of cryo stock of each strain were inoculated in 20 mL LB medium (Lysogeny broth: 10 g/L peptone, 5 g/L yeast extract, 5 g/L NaCl) followed by incubation overnight at 37 °C, 200 rpm. The test inoculum was adjusted by the 0.5 McFarland Standard (OD625 from 0.08 to 0.1). Within 15 min of preparation, the adjusted inoculum suspension was diluted in MHBII (BBLTM Mueller-Hinton Broth II, Becton, Dickinson and Company, New Jersey, USA) so that each well contained approximately 5 × 10^5 CFU/mL in a final volume of 100 µL. 95 µL of the inoculum were applied per well and 5 µL of the (diluted) antibiotic substance were added. Previously, the dry antibiotic compounds (1 to 15 and antibiotic control Ciprofloxacin (CIP)) were dissolved in DMSO (100%) with a concentration of 2560 µg/mL, and the so obtained stock solutions were further diluted in DMSO (100%). 5 µL of each antibiotic dilution were applied to the microdilution tray to reach final concentrations of 8 µg/mL to 0.016 µg/mL. One row of each well plate served as a growth control without antibiotic substances and another row of the microdilution tray served as sterility control (only MHB II-media). The antimicrobial effect of the solvent (DMSO) was tested by adding 5 µL DMSO to several wells. […] After UV exposure, we observed a second resonance set mainly for signals arising from residues MCA and pABA‐1. The new signals for the methyl, vinyl and aromatic protons of MCA were clearly shifted up‐field. To provide evidence that the second resonance set arose from the Z isomer, we performed 2D nuclear Overhauser enhancement (NOE) measurements, which unambiguously confirmed the expected atomic distances in the two isomeric states (Figure S1 in the Supporting Information). While only a small portion of the initial E state (t=0 h) was converted after t=2.5 h, an almost complete conversion to the Z isomer was detected after t=16 h. […] After 32 h, however, the equilibrium had also been reached and approximately 65 % of the fluoro analogue adopted the Z‐isomeric form (Figure S2). It is important to note that significant accumulation of the (Z)‐isomer also occurred when albicidin samples were exposed to sunlight (ca. 50 and 80 % Z after 32 and 160 h daylight, respectively) underlining the vulnerability of 1 during routine handling. These findings became even more relevant when we determined minimal inhibitory concentrations (MICs) against a panel of bacteria (Table S1). […] The fact, that the albicidin producer X. albilineans inhabits the xylem of sugar cane, which is exposed to sunlight, could severely impact the stability of albicid

M. luteus DSM1790 [2] = test system: T2, M. luteus DSM1790; experiment: microbe, parasite or virus in culture; parameters: broth microdilution MIC in Mueller-Hinton Broth II, CLSI M07-A9; details: Micrococcus luteus
T2 construct: DSM1790
Description: as §1

E. coli DSM1116 [3] = test system: T3, E. coli DSM1116; experiment: microbe, parasite or virus in culture; parameters: broth microdilution MIC in Mueller-Hinton Broth II, CLSI M07-A9
T3 construct: DSM1116
Description: as §1

E. coli BW25113 [4] = test system: T4, E. coli BW25113; experiment: microbe, parasite or virus in culture; parameters: broth microdilution MIC in Mueller-Hinton Broth II, CLSI M07-A9; details: Escherichia coli
T4 construct: BW25113
Description: as §1

S. typhimurium TA100 [5] = test system: T5, S. typhimurium TA100; experiment: microbe, parasite or virus in culture; parameters: broth microdilution MIC in Mueller-Hinton Broth II, CLSI M07-A9; details: Salmonella enterica
T5 construct: TA100
Description: as §1

B. subtilis DSM10 [6] = test system: T1, B. subtilis DSM10; experiment: microbe, parasite or virus in culture; parameters: broth microdilution MIC, CLSI M07-A9, MHB II; details: Bacillus subtilis
Description: (§2) 2 Procedures for Biological Assays. Microdilution Assay. Minimal inhibitory concentration (MIC) values were determined according to the ninth edition of the Approved Standard M07-A9. The test was carried out for six different bacterial strains (E.coli DSM1116 [Gram-negative], E. coli BW25113 [Gram-negative], B. subtilis DSM10 [Gram-postive], M. luteus DSM1790 [Gram-postive], M. phlei DSM750 [Gram-postive], S. typhimurium TA100 [Gram-negative]. 20 µL of cryo stock of each strain were inoculated in 20 mL LB medium (Lysogeny broth: 10 g/L peptone, 5 g/L yeast extract, 5 g/L NaCl) followed by incubation overnight at 37 °C, 200 rpm. The test inoculum was adjusted by the 0.5 McFarland Standard (OD625 from 0.08 to 0.1). Within 15 min of preparation, the adjusted inoculum suspension was diluted in MHBII (BBLTM Mueller-Hinton Broth II, Becton, Dickinson and Company, New Jersey, USA) so that each well contained approximately 5 × 10^5 CFU/mL in a final volume of 100 µL. 95 µL of the inoculum were applied per well and 5 µL of the (diluted) antibiotic substance were added. Previously, the dry antibiotic compounds (1 to 15 and antibiotic control Ciprofloxacin (CIP)) were dissolved in DMSO (100%) with a concentration of 2560 µg/mL, and the so obtained stock solutions were further diluted in DMSO (100%). 5 µL of each antibiotic dilution were applied to the microdilution tray to reach final concentrations of 8 µg/mL to 0.016 µg/mL. One row of each well plate served as a growth control without antibiotic substances and another row of the microdilution tray served as sterility control (only MHB II-media). The antimicrobial effect of the solvent (DMSO) was tested by adding 5 µL DMSO to several wells. Purity check and cell titer control were performed according to International Standard M07-

M. luteus DSM1790 [7] = test system: T2, M. luteus DSM1790; experiment: microbe, parasite or virus in culture; parameters: broth microdilution MIC, CLSI M07-A9, MHB II; details: Micrococcus luteus
Description: as §2

E. coli BW25113 [8] = test system: T4, E. coli BW25113; experiment: microbe, parasite or virus in culture; parameters: broth microdilution MIC, CLSI M07-A9, MHB II; details: Escherichia coli
Description: as §2

S. typhimurium TA100 [9] = test system: T5, S. typhimurium TA100; experiment: microbe, parasite or virus in culture; parameters: broth microdilution MIC, CLSI M07-A9, MHB II; details: Salmonella enterica
Description: as §2

E. coli DNA gyrase = molecular target: T6, E. coli DNA gyrase (Escherichia coli, UniProt P0AES4+P0AES6); experiment: DNA gyrase supercoiling assay; type: biochemical; details: tested at 45 nM
T6 construct: gene gyrA; holoenzyme A2B2 (known biology)

E. coli DSM1116 [10] = test system: T3, E. coli DSM1116; experiment: microbe, parasite or virus in culture; parameters: broth microdilution MIC, CLSI M07-A9, MHB II; details: Escherichia coli
Description: as §2

[11] = Escherichia coli, DSM1116, read-out: MIC

T6 sequence (P0AES4 2-875, one chain of several): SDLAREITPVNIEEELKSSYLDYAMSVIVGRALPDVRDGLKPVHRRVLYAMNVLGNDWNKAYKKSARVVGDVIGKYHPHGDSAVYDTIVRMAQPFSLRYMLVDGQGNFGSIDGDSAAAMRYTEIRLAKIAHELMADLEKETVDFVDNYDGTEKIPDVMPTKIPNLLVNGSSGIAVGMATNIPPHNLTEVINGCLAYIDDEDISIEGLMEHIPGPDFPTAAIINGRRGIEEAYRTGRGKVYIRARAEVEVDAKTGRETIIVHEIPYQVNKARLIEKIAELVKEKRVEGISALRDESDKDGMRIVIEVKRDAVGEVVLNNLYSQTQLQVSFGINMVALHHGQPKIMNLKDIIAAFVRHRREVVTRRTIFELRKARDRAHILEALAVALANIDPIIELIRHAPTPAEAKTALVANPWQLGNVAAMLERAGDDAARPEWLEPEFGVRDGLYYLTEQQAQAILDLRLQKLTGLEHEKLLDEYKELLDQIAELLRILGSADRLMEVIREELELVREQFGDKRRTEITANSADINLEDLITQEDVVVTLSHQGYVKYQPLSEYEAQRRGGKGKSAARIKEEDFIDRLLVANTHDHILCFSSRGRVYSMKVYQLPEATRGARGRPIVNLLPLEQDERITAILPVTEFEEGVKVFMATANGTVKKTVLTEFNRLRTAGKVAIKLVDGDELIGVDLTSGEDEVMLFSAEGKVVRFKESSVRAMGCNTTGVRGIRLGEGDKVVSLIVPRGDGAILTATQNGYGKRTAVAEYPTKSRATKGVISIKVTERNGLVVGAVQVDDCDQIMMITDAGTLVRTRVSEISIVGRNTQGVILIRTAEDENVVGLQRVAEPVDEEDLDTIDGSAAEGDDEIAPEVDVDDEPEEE

Row | SMILES | MIC (B. subtilis DSM10 [1]) [µg/mL] | MIC (M. luteus DSM1790 [2]) [µg/mL] | MIC (E. coli DSM1116 [3]; [11]) [µg/mL] | MIC (E. coli DSM1116 [3]; inhibitor, CIP) [µg/mL] | MIC (E. coli BW25113 [4]) [µg/mL] | MIC (S. typhimurium TA100 [5]) [µg/mL] | MIC (B. subtilis DSM10 [6]) [µg/mL] | MIC (M. luteus DSM1790 [7]) [µg/mL] | MIC (E. coli BW25113 [8]) [µg/mL] | MIC (S. typhimurium TA100 [9]) [µg/mL] | inhibition at 45 nM (E. coli DNA gyrase) | MIC (B. subtilis DSM10 [1]; dark sample, 100% E isomer) [µg/mL] | MIC (M. luteus DSM1790 [2]; dark sample, 100% E isomer) [µg/mL] | MIC (E. coli DSM1116 [3]; Escherichia coli, dark sample, 100% E isomer) [µg/mL] | MIC (E. coli BW25113 [4]; dark sample, 100% E isomer) [µg/mL] | MIC (S. typhimurium TA100 [5]; dark sample, 100% E isomer) [µg/mL] | MIC (E. coli DSM1116 [10]) [µg/mL]
1 | O=C(O)c1cn(C2CC2)c2cc(N3CCNCC3)c(F)cc2c1=O [CIP, ciprofloxacin] | 0.25 (≈ 0.754 µM) | 1 (≈ 3.02 µM) | 0.016 (≈ 0.0483 µM) | 0.031 (≈ 0.0936 µM) | ≤ 0.016 | ≤ 0.016 | 0.25 (≈ 0.754 µM) | 1 (≈ 3.02 µM) | ≤ 0.016 | ≤ 0.016 |  |  |  |  |  |  | 
2 | COc1c(NC(=O)c2ccc(NC(=O)c3ccc(NC(=O)[C@H](CC#N)NC(=O)c4ccc(NC(=O)/C(C)=C\c5ccc(O)cc5)cc4)cc3)c(OC)c2O)ccc(C(=O)O)c1O [Z isomer of albicidin] |  |  |  |  |  |  |  |  |  |  | the Z isomer was incapable of inhibiting DNA gyrase |  |  |  |  |  | 
3 | COc1c(NC(=O)c2ccc(NC(=O)c3ccc(NC(=O)[C@H](CC#N)NC(=O)c4ccc(NC(=O)/C(C)=C/c5ccc(O)cc5)cc4)cc3)c(OC)c2O)ccc(C(=O)O)c1O [compound 1, albicidin] | 0.25 (≈ 0.297 µM) | 1 (≈ 1.19 µM) | 0.063 (≈ 0.0747 µM) |  | 0.063 (≈ 0.0747 µM) | ≤ 0.016 | 0.25 (≈ 0.297 µM) | 1 (≈ 1.19 µM) | 0.063 (≈ 0.0747 µM) | ≤ 0.016 |  | 0.25 (≈ 0.297 µM) | 1 (≈ 1.19 µM) | 0.063 (≈ 0.0747 µM) | 0.063 (≈ 0.0747 µM) | 0.016 (≈ 0.019 µM) | 0.063 (≈ 0.0747 µM)
